Tests used:
Format in all cases: cell-based
[1] = molecular target: T1, APOL1 G2 (Homo sapiens, UniProt O14791, DEL388-389); experiment: APOL1-mediated calcium transport (calcium influx) assay, HEK T-REx/GCaMP6f/APOL1 G2 K6.3 cells, FLIPR TETRA; details: prevention of calcium influx; geometric mean of at least 2 assay runs; † = average of a technical replicate from a single assay run
T1 construct: expressed in transfected cells; host or cells: HEK293 T-REx clonal line stably expressing GCaMP6f (HEK T-REx/GCaMP6f/APOL1 G2 K6.3), doxycycline induced
T1 sequence (O14791 with tags, fused parts or gaps DEL388-389): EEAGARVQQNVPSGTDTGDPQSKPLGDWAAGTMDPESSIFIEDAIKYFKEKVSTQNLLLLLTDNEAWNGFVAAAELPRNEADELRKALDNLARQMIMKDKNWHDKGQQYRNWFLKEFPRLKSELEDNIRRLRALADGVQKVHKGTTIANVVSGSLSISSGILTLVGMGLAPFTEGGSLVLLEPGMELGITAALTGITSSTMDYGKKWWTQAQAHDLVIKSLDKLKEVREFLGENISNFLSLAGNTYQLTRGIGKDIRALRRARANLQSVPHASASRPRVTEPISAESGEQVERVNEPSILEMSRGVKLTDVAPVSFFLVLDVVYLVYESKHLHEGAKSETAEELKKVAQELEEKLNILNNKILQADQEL
Experimental: A HEK293 clonal cell line was generated to stably express GCaMP6f, a genetically encoded calcium indicator, and inducibly express APOL1 G2 (HEK T-REx/GCaMP6f/APOL1 G2 K6.3). Cells were maintained in the following standard complete medium: DMEM with 4.5 g/L glucose and sodium pyruvate (BioWhittaker, Lonza, BE12-614F), supplemented with 10% FBS Performance Plus (Gibco, 16000044), 1% penicillin-streptomycin (BioWhittaker, DE17-602E), 2 mM ultraglutamine-1 (BioWhittaker cat. BE 17-605/U1), 50 μg/mL Zeocin (InvivoGen, ant-zn), 2.5 μg/mL Blasticidin (InvivoGen, ant-bl-5), and 25 μg/mL Hygromycin (InvivoGen, ant-hg). Standard propagation conditions consisted of plating 9×10^6, 4×10^6, 2×10^6 cells in a T225 flasks to be processed after 2, 3, or 4 days, respectively.
A source plate was generated containing 20 serially diluted compounds in DMSO (duplicate 8-point dose response). Next, 0.8 μL of compounds were transferred from the source plate to a destination plate prefilled with 79.2 μL of Ca^2+ free Tyrode's buffer (130 mM NaCl, 5 mM KCl, 1 mM MgCl2, 5 mM NaHCO3, 20 mM HEPES at pH 7.4). The destination plate was placed on a plate shaker (5 seconds at 2000 rpm) to mix. […] All transfer and mixing steps were conducted with an CyBi®-Well dispenser.
Cells were split by gently washing with DPBS (Euroclone, ECB4004L), followed by a 5-minute incubation (humidified, 37° C. with 5% CO2) with trypsin-EDTA solution (Euroclone, ECB3052D). Detached cells were diluted with standard complete medium without selective agents, counted, and plated in a 384 MTP microplate (GR4332CPL, Twin Helix) (10,000 cells/well in 25 μl/well) using a MATRIX WellMate dispenser. Plates were placed into a humidified incubator (37° C. with 5% CO2) overnight. The following day, 20 μL of doxycycline (Sigma, D9891) at 20 ng/mL in standard complete medium was added to cells with a CyBi® Drop dispenser to induce APOL1 G2 expression. After a 6-hour incubation (humidified, 37° C. with 5% CO2), cells were washed 3 times with Ca^2+ free Tyrode's Buffer (130 mM NaCl, 5 mM KCl, 1 mM MgCl2, 5 mM NaHCO3, 20 mM HEPES at pH 7.4) using a BIOTEK Microplate washer, such that 10 μL of buffer remained in each well after the final wash. Assay plates were then stored at room temperature for 10 minutes. Next, 10 μL of diluted compounds were transferred to the assay plate from the 2× compound plate using a CyBi®-Well dispenser. Compound incubation was then carried out at room temperature for 10 minutes. The assay plate was transferred to the FLIPR^TETRA and 20 μL of 10 mM Ca^2+ (final concentration=5 mM) Tyrode's buffer was injected.
Unless otherwise specified, AC50 and values are reported as the geometric mean of at least 2 assay runs on separate days. Each run represents the average of a technical replicate, where each compound was assayed twice in the same plate. A superscript t symbol indicates a value from the average of a technical replicate from a single assay run, where each compound was assayed twice in the same plate.
The AC50 values in Table 39 below reflect the compound's ability to prevent calcium influx by inhibiting APOL1. […] Compounds in Table 39 are referred to by the corresponding Compound Number in Table 1, which is also referred to in the synthetic examples. When one or more of the numbered compounds are identified by stereochemistry (for example, (R)- or (S)-), the specific stereoisomer for which data is provided in Table 39 may be identified by the elution order of such compound as described in the synthetic examples. For example, Compounds 39 and 40 are associated with Step 5 of Example 13, where Compound 39 is the first eluting enantiomer, and Compound 40 is the second eluting enantiomer in the chiral separation of Compound 38. For Table 39 below, n/a represents “not available”.

[2] = tested on: HEK293 clonal cell line overexpressing APOL1 G1; experiment: APOL1 G1 HEK293 cell rescue assay (Example B3); details: geometric mean of at least 2 runs, † = single run, ¥ = concentration at 50% rescue estimated (no sigmoidal curve)
Procedure, shortened: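 HEK293 clonal line overexpressing APOL1 G1; EC50 is half-maximal reversal of APOL1-induced cell death. Values are the geometric mean of ≥2 runs on separate days, each run the average of duplicate wells. Where no sigmoidal curve could be fitted, the concentration giving 50% rescue was estimated.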

[3] = tested on: HEK293 cells overexpressing APOL1 G2; experiment: APOL1 G2 HEK293 cell rescue assay (reversal of cell death caused by overexpression of APOL1); details: geometric mean of at least 2 assay runs, † = single assay run
Procedure, shortened: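 EC50 is the half-maximal effective concentration for reversing cell death driven by APOL1 G2 overexpression in HEK293 cells. Reported as geometric mean of at least 2 runs on separate days, each run averaging duplicate wells per plate; some values from a single run.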

[4] = Homo sapiens, HEK293, HEK293 clonal line overexpressing APOL1 G1
[5] = Homo sapiens, HEK293, HEK293 overexpressing APOL1 G2
[6] = HEK293 clonal line overexpressing APOL1 G1

Compound	AC50 [1]	EC50 [2, 4]	EC50 [3, 5]	EC50 [2, 6]	EC50 ([3]; HEK293 overexpressing APOL1 G2)
O=C1NCc2cc(OCCN3CCC4(CC3)C(=O)Nc3ccc(Cl)cc34)ccc21 [Compound 171, 5-chloro-1′-{2-[(1-oxo-2,3-dihydro-1H-isoindol-5-yl)oxy]ethyl}-1,2-dihydrospiro[indole-3,4′-piperidin]-2-one]	598 nM	228 nM	100 nM		
CN1Cc2cc(OCCN3CCC4(CC3)C(=O)N(C)c3ccccc34)ccc2C1=O [Compound 30, 1-methyl-1′-{2-[(2-methyl-1-oxo-2,3-dihydro-1H-isoindol-5-yl)oxy]ethyl}-1,2-dihydrospiro[indole-3,4′-piperidin]-2-one]	409 nM	> 22500 nM	1480 nM		
CS(=O)(=O)c1ccc(OCCN2CCC3(CC2)C(=O)Nc2ccc(C#N)cc23)cc1C(F)CF (single isomer, unassigned) [Compound 222, 1′-(2-{3-[(1R or 1S)-1,2-difluoroethyl]-4-methanesulfonyl-phenoxy}ethyl)-2-oxo-1,2-dihydrospiro[in-dole-3,4′-piperidine]-5-carbonitrile]	783 nM			605 nM	141 nM
CN(C)c1ncc(OCCN2CCC3(CC2)C(=O)Nc2ccc(Cl)cc23)cn1 [Compound 303, 5-chloro-1′-(2-{[2-(dimethylamino)pyrimidin-5-yl]oxy}ethyl)-1,2-dihydrospiro[indole-3,4′-piperidin]-2-one]	822 nM	351 nM	156 nM		
CC(C)(CO)c1ncc(OCCN2CCC3(CC2)C(=O)Nc2ccc(C#N)cc23)cn1 [Compound 432, 1′-(2-{[2-(1-hydroxy-2-methylpropan-2-yl)pyrimidin-5-yl]oxy}ethyl)-2-oxo-1,2-dihydrospiro[indole-3,4′-piperidine]-5-carbonitrile]	2560 nM	288 nM	161 nM		
N#Cc1ccc2c(c1)C1(CCN(CCOc3ccc4c(c3)CCN3C(=O)CCC43)CC1)C(=O)N2 (stereo not drawn) [Compound 124, 2-oxo-1′-[2-({3-oxo-1H,2H,3H,5H,6H,10bH-pyrrolo[2,1-a]isoquinolin-8-yl}oxy)ethyl]-1,2-dihydrospiro[indole-3,4′-piperidine]-5-carbonitrile]	727 nM	920 nM	297 nM		
CN1C(=O)C(C)(C)c2cc(OCCN3CCC4(CC3)C(=O)Nc3ccc(C#N)cc34)ccc21 [Compound 83, 2-oxo-1′-{2-[(1,3,3-trimethyl-2-oxo-2,3-dihydro-1H-indol-5-yl)oxy]ethyl}-1,2-dihydrospiro[indole-3,4′-piperidine]-5-carbonitrile]	718 nM	788 nM	247 nM		
CS(=O)(=O)c1ccc(OCCN2CCC3(CC2)C(=O)Nc2ccc(Cl)cc23)cc1C(F)CF (stereo not drawn) [Compound 217, 5-chloro-1′-{2-[3-(1,2-difluoroethyl)-4-methanesulfonylphenoxy]ethyl}-1,2-dihydrospiro[indole-3,4′-piperidin]-2-one]	866 nM	108 nM	32.6 nM		
CN1C(=O)C2(CCN(CCOc3ccc4c(c3)CCN(S(C)(=O)=O)C4)CC2)c2ccccc21 [Compound 55, 1′-{2-[(2-methanesulfonyl-1,2,3,4-tetrahydroisoquinolin-6-yl)oxy]ethyl}-1-methyl-1,2-dihydrospiro[indole-3,4′-piperidin]-2-one]	< 284 nM	1210 nM	983 nM		
CC(c1c(F)cc(OCCN2CCC3(CC2)C(=O)Nc2ccc(Cl)cc23)cc1F)S(C)(=O)=O (stereo not drawn) [Compound 141, 5-chloro-1′-{2-[3,5-difluoro-4-(1-methanesulfonylethyl)phenoxy]ethyl}-1,2-dihydrospiro[indole-3,4′-piperidin]-2-one]	954 nM	204 nM	48 nM		
CC(C)(C(N)=O)c1ccc(OCCN2CCC3(CC2)C(=O)Nc2ccc(C#N)cc23)cc1 [Compound 257, 2-[4-(2-{5-cyano-2-oxo-1,2-dihydrospiro[indole-3,4′-piperidin]-1′-yl}ethoxy)phenyl]-2-methylpropanamide]	974 nM	~1000 nM	256 nM		
NC(=O)c1ncc(OCCN2CCC3(CC2)C(=O)Nc2ccc(Cl)cc23)cn1 [Compound 258, 5-(2-{5-chloro-2-oxo-1,2-dihydrospiro[indole-3,4′-piperidin]-1′-yl}ethoxy)pyrimidine-2-carboxamide]	1050 nM	~1300 nM	444 nM		
C[C@@H](COc1cc(F)c(S(C)(=O)=O)c(F)c1)N1CCC2(CC1)C(=O)Nc1ccc(C#N)cc12 (single isomer, unassigned) [Compound 213]	1120 nM	497 nM	189 nM		
CC1(O)CC(CN2C(=O)CCc3cc(OCCN4CCC5(CC4)C(=O)Nc4ccc(C(F)F)cc45)cnc32)C1 (stereo not drawn) [Compound 320, 5-(difluoromethyl)-1′-[2-({8-[(3-hydroxy-3-methylcyclobutyl)methyl]-7-oxo-5,6,7,8-tetrahydro-1,8-naphthyridin-3-yl}oxy)ethyl]-1,2-dihydrospiro[indole-3,4′-piperidin]-2-one]	787 nM	53.9 nM	22.1 nM		
N#Cc1ccc2c(c1)C1(CCN(CCOc3ccc4c(c3)CCN3C(=O)CCC43)CC1)C(=O)N2 (single isomer, unassigned) [Compound 125, (S) or (R)-2-oxo-1′-[2-({3-oxo-1H,2H,3H,5H,6H,10bH-pyrrolo[2,1-a]isoquinolin-8-yl}oxy)ethyl]-1,2-dihydrospiro[indole-3,4′-piperidine]-5-carbonitrile]	729 nM		355 nM	> 4860 nM	

Source: patent US12344610B2, “APOL1 inhibitors and methods of use” (Maze Therapeutics, Inc., priority 2022, dated 2025)
